This is an account of results in patent US10975083B2, “Blood-brain barrier-penetrant dopamine-β-hydroxylase inhibitors” (BIAL—PORTELA & Cᵃ, S.A., priority 2016, dated 2021).

One data set is described as follows: in vitro. Conditions: dog, MDCK, pH 7.4.
The target of a further data set is T1, DβH (Homo sapiens, UniProt P09172).
T1 construct: reaction mixture (total volume 500 μl) contained: cellular homogenate (75 μg total protein); host or cells: SK-N-SH cell homogenate
T1 sequence (P09172 1-617): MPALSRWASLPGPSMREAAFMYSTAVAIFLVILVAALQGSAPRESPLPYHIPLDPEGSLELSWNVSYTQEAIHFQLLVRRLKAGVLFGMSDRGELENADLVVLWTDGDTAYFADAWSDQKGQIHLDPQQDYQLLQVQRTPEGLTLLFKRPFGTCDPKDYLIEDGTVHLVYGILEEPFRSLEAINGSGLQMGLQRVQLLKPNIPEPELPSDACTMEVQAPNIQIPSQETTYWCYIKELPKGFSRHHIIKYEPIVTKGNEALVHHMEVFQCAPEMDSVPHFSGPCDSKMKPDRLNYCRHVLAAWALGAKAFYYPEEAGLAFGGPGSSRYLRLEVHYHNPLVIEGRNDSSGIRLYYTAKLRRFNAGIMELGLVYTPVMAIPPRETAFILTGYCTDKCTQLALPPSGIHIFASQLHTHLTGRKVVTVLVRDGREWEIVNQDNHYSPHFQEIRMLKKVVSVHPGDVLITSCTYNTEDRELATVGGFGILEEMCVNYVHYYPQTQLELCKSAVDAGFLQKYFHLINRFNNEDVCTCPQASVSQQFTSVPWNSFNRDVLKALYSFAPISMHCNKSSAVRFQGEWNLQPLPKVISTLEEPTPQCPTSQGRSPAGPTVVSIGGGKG
Put plainly: DβH inhibition cell assay (SK-N-SH cellular homogenates, tyramine to octopamine). It counts as biochemical. Conditions: for remaining activity at 0.1 µM: read-out: DβH activity in % of Ctrl (0.1 μM); for remaining activity at 1 µM: read-out: DβH activity in % of Ctrl (1 μM); for remaining activity at 10 µM: inhibitor 10 μM, read-out: DβH activity in % of Ctrl (10 μM).

[1] abbreviates: inhibitor 0.1 μM, SK-N-SH cell homogenate.
[2] abbreviates: inhibitor 1 μM, SK-N-SH cell homogenate.

Read-outs that look alike come from different tables or passages of the source.

On to `NC(=S)N1CCC(c2c(F)c(F)cc(F)c2F)C1` (stereo not shown) [Example 23, 3-(2,3,5,6-Tetrafluorophenyl)pyrrolidine-1-carbothioamide], for which the Papp A→B at 30 min, 50 μM in the data set “in vitro” was 100 ×10⁻⁶ cm/s. Further, the remaining activity at 0.1 µM on DβH (setting [1]) is 5.9%. The remaining activity at 1 µM at DβH (setting [2]) worked out at 0%.

As for `CC1(c2ccccc2)CCN(C(N)=S)C1` (stereo not shown) [Example 7, 3-methyl-3-phenylpyrrolidine-1-carbothioamide], the apical-to-basolateral permeability (Papp A→B) at 30 min, 50 μM in “in vitro” is 100 ×10⁻⁶ cm/s. Further, the remaining activity at 0.1 µM on DβH (setting [1]) was 84.8%. Moreover, at DβH (setting [2]), the remaining activity at 1 µM turned out to be 37.7%. Also, at DβH (SK-N-SH cell homogenate), the remaining activity at 10 µM stood at 7.5%.

As for `CNC(=S)N1CC(c2cc(F)cc(F)c2)CC1=O` (stereo not shown) [Example 42, 4-(3,5-difluorophenyl)-N-methyl-2-oxopyrrolidine-1-carbothioamide], in “in vitro”, the apical-to-basolateral permeability (Papp A→B) at 30 min, 50 μM was 100 ×10⁻⁶ cm/s. Besides, the remaining activity at 1 µM at DβH (setting [2]) amounted to 44.1%.

Take `NC(=S)N1CCC(c2cc(F)cc(F)c2F)C1` (stereo not shown) [Example 24, 3-(2,3,5-trifluorophenyl)pyrrolidine-1-carbothioamide]: in “in vitro”, the Papp A→B at 30 min, 50 μM was 100 ×10⁻⁶ cm/s. Besides, the remaining activity at 0.1 µM at DβH (setting [1]) stood at 40.2%. The remaining activity at 1 µM at DβH (setting [2]) turned out to be 15.9%.

On to `Fc1ccc(F)c([C@@]23C[C@@H]2c2c[nH]c(=S)n2C3)c1` [Example 57, (5aR,6aS)-5a-(2,5-difluorophenyl)-5,5a,6,6a-tetrahydrocyclopropa[3,4]pyrrolo[1,2-c]imidazole-3(2H)-thione], for which, in the data set “in vitro”, the Papp A→B at 30 min, 50 μM was 63.1 ×10⁻⁶ cm/s. Besides, the remaining activity at 0.1 µM on DβH (setting [1]) is 97.9%. Besides, the remaining activity at 1 µM on DβH (setting [2]) worked out at 58.6%. In addition, the remaining activity at 10 µM at DβH (SK-N-SH cell homogenate) was found to be 9.2%.

`NC(=S)N1CC2CC2(c2cc(F)ccc2F)C1` (stereo not shown) [Example 38, 1-(2,5-difluorophenyl)-3-azabicyclo[3.1.0]hexane-3-carbothioamide] had a Papp A→B at 30 min, 50 μM in the data set “in vitro” of 79.4 ×10⁻⁶ cm/s. At DβH (setting [1]), the remaining activity at 0.1 µM came out at 3.3%. Further, the remaining activity at 1 µM at DβH (setting [2]) worked out at 0%.

Regarding `CNC(=S)N1C[C@@H]2C[C@]2(c2cc(F)cc(F)c2)C1` [Example 30, (1S,5R)-1-(3,5-Difluorophenyl)-N-methyl-3-azabicyclo[3.1.0]hexane-3-carbothioamide], the apparent permeability from apical to basolateral (Papp A→B) at 30 min, 50 μM in the data set “in vitro” is 126 ×10⁻⁶ cm/s. Further, on DβH (setting [1]), the remaining activity at 0.1 µM came out at 3.3%. Besides, the remaining activity at 1 µM on DβH (setting [2]) turned out to be 2.8%.

As for `Fc1cc(F)cc([C@H]2Cc3c[nH]c(=S)n3C2)c1` [Example 58, (R)-6-(3,5-difluorophenyl)-6,7-dihydro-2H-pyrrolo[1,2-c]imidazole-3(5H)-thione], the apparent permeability from apical to basolateral (Papp A→B) at 30 min, 50 μM in “in vitro” was 126 ×10⁻⁶ cm/s. Also, on DβH, the remaining activity at 0.1 µM was found to be 106% and the remaining activity at 1 µM was determined as 59.8%.

With `CNC(=S)N1CCC(c2ccccc2)C1` (stereo not shown) [Example 31, N-methyl-3-phenylpyrrolidine-1-carbothioamide], the Papp A→B at 30 min, 50 μM in the data set “in vitro” was 79.4 ×10⁻⁶ cm/s. Further, at DβH (SK-N-SH cell homogenate), the remaining activity at 10 µM turned out to be 15.8%.

`NC(=S)N1C[C@H]2C[C@@]2(c2cccs2)C1` [Example 27, (1S,5S)-1-(thiophen-2-yl)-3-azabicyclo[3.1.0]hexane-3-carbothioamide] showed an apical-to-basolateral permeability (Papp A→B) at 30 min, 50 μM in “in vitro” of 126 ×10⁻⁶ cm/s. Moreover, at DβH (setting [2]), the remaining activity at 1 µM worked out at 20.8%.

`Fc1ccc(F)c(C23CC2c2c[nH]c(=S)n2C3)c1` (stereo not shown) [Example 55, 5a-(2,5-difluorophenyl)-5,5a,6,6a-tetrahydrocyclopropa[3,4]pyrrolo[1,2-c]imidazole-3(2H)-thione]: the Papp A→B at 30 min, 50 μM in the data set “in vitro” is 79.4 ×10⁻⁶ cm/s. The remaining activity at 0.1 µM on DβH (setting [1]) worked out at 61%. In addition, the remaining activity at 1 µM at DβH (setting [2]) came out at 0.4%.

The molecule `Fc1cc(F)cc(C23CC2c2c[nH]c(=S)n2C3)c1` (stereo not shown) [Example 53, 5a-(3,5-difluorophenyl)-5,5a,6,6a-tetrahydrocyclopropa[3,4]pyrrolo[1,2-c]imidazole-3(2H)-thione] showed an apical-to-basolateral permeability (Papp A→B) at 30 min, 50 μM in the data set “in vitro” of 25.1 ×10⁻⁶ cm/s. Moreover, at DβH, the remaining activity at 0.1 µM came to 66.5% and the remaining activity at 1 µM was 11.8%.

Consider `S=c1[nH]cc2n1CC(c1ccccc1)C2` (stereo not shown) [Example 49, 6-phenyl-6,7-dihydro-2H-pyrrolo[1,2-c]imidazole-3(5H)-thione], for which the apparent permeability from apical to basolateral (Papp A→B) at 30 min, 50 μM in the data set “in vitro” was 100 ×10⁻⁶ cm/s. At DβH, the remaining activity at 1 µM was 60.6%.

In “in vitro”, `NC(=S)N1CCC(c2ccco2)C1` (stereo not shown) [Example 17, 3-(furan-2-yl)pyrrolidine-1-carbothioamide] gave a Papp A→B at 30 min, 50 μM of 79.4 ×10⁻⁶ cm/s. Besides, the remaining activity at 1 µM at DβH (setting [2]) was 56.8%.

For `Fc1ccc(Cl)c(F)c1[C@@]12C[C@@H]1c1c[nH]c(=S)n1C2` [Example 103, (5aR,6aS)-5a-(3-chloro-2,6-difluorophenyl)-5,5a,6,6a-tetrahydrocyclopropa[3,4]pyrrolo[1,2-c]imidazole-3 (2H)-thione], the remaining activity at 0.1 µM at DβH (setting [1]) was 63.4%. In addition, the remaining activity at 1 µM on DβH (setting [2]) amounted to 10.3%.

As to `Fc1ccc(Cl)c(F)c1[C@@H]1Cc2c[nH]c(=S)n2C1` [Example 85, (S)-6-(3-chloro-2,6-difluorophenyl)-2,5,6,7-tetrahydro-3H-pyrrolo[1,2-c]imidazole-3-thione], the remaining activity at 0.1 µM at DβH (setting [1]) was determined as 0%. The remaining activity at 1 µM on DβH (setting [2]) stood at 0%.

Consider `Cc1cccc(C2CCN(C(N)=S)C2)c1` (stereo not shown) [Example 14, 3-m-tolylpyrrolidine-1-carbothioamide], for which the remaining activity at 10 µM at DβH (SK-N-SH cell homogenate) was 13.1%.

Take `Fc1cccc([C@]23C[C@H]2c2c[nH]c(=S)n2C3)c1F` [Example 66, (5aS,6aR)-5a-(2,3-difluorophenyl)-5,5a,6,6a-tetrahydrocyclopropa[3,4]pyrrolo[1,2-c]imidazole-3(2H)-thione]: the remaining activity at 0.1 µM on DβH (setting [1]) was determined as 51.1%. In addition, the remaining activity at 1 µM on DβH (setting [2]) was 7.9%.

Regarding `Cc1[nH]c(=S)n2c1C[C@@H](c1c(F)cccc1F)C2` [Example 98, (S)-6-(2,6-difluorophenyl)-1-methyl-2,5,6,7-tetrahydro-3H-pyrrolo[1,2-c]imidazole-3-thione], the remaining activity at 1 µM on DβH (setting [2]) turned out to be 39.9%.

Take `CNC(=S)N1C=CC(c2cc(F)cc(F)c2)C1` (stereo not shown) [Example 48, 3-(3,5-Difluorophenyl)-N-methyl-2,3-dihydro-1H-pyrrole-1-carbothioamide]: the remaining activity at 1 µM on DβH (setting [2]) turned out to be 43%.

With `CNC(=S)N1C[C@@]2(c3cc(F)cc(F)c3)C[C@H]2C1=O` [Example 41, (1S,5R)-1-(3,5-difluorophenyl)-N-methyl-4-oxo-3-azabicyclo[3.1.0]hexane-3-carbothioamide], at DβH (setting [1]), the remaining activity at 0.1 µM came out at 29.8%. Further, the remaining activity at 1 µM at DβH (setting [2]) is 0%.

As for `Fc1cccc(F)c1[C@@H]1Cc2c[nH]c(=S)n2C1` [Example 84, (S)-6-(2,6-difluorophenyl)-2,5,6,7-tetrahydro-3H-pyrrolo[1,2-c]imidazole-3-thione], the remaining activity at 0.1 µM on DβH (setting [1]) stood at 96.9%. For the same molecule, at DβH (setting [2]), the remaining activity at 1 µM was determined as 41.9%.

For the molecule `NC(=S)N1C[C@@H]2C[C@]2(c2cc(F)cc(F)c2)C1` [Example 36, (1S,5R)-1-(3,5-difluorophenyl)-3-azabicyclo[3.1.0]hexane-3-carbothioamide], the remaining activity at 0.1 µM at DβH (setting [1]) worked out at 4%. Also, the remaining activity at 1 µM on DβH (setting [2]) turned out to be 0%.

In the case of `Fc1cc(F)c(F)c([C@]23C[C@H]2c2c[nH]c(=S)n2C3)c1` [Example 63, (5aS,6aR)-5a-(2,3,5-trifluorophenyl)-5,5a,6,6a-tetrahydrocyclopropa[3,4]pyrrolo[1,2-c]imidazole-3 (2H)-thione], on DβH (setting [2]), the remaining activity at 1 µM amounted to 13.9%.

Consider `N#CCNC(=S)N1CC2CC2(c2cc(F)ccc2F)C1` (stereo not shown) [Example 47, N-(cyanomethyl)-1-(2,5-difluorophenyl)-3-azabicyclo[3.1.0]hexane-3-carbothioamide], for which the remaining activity at 1 µM at DβH (setting [2]) turned out to be 45.3%.

On to `Fc1ccc([C@]23C[C@H]2c2c[nH]c(=S)n2C3)c(F)c1` [Example 70, (5aS,6aR)-5a-(2,4-difluorophenyl)-5,5a,6,6a-tetrahydrocyclopropa[3,4]pyrrolo[1,2-c]imidazole-3(2H)-thione], for which the remaining activity at 1 µM on DβH (setting [2]) came out at 35.7%.

With `CC(C)NCC(O)COc1cccc2ccccc12` (stereo not shown) [Propranolol, reference compound], in “in vitro”, the apical-to-basolateral permeability (Papp A→B) at 30 min, 50 μM is 63.1 ×10⁻⁶ cm/s.

Consider `Fc1cccc(F)c1[C@@]12C[C@@H]1c1c[nH]c(=S)n1C2` [Example 65, (5aR,6aS)-5a-(2,6-difluorophenyl)-5,5a,6,6a-tetrahydrocyclopropa[3,4]pyrrolo[1,2-c]imidazole-3(2H)-thione], for which the remaining activity at 1 µM at DβH (setting [2]) turned out to be 17.9%.

On to `C[C@H]1c2c[nH]c(=S)n2C[C@H]1c1c(F)c(F)cc(F)c1F` [Example 108, (6R,7R)-7-methyl-6-(2,3,5,6-tetrafluorophenyl)-2,5,6,7-tetrahydro-3H-pyrrolo[1,2-c]imidazole-3-thione], for which the remaining activity at 1 µM at DβH (setting [2]) worked out at 38.8%.

In the case of `Fc1cc(F)c([C@]23C[C@H]2c2c[nH]c(=S)n2C3)cc1F` [Example 72, (5aS,6aR)-5a-(2,4,5-trifluorophenyl)-5,5a,6,6a-tetrahydrocyclopropa[3,4]pyrrolo[1,2-c]imidazole-3 (2H)-thione], the remaining activity at 1 µM at DβH (setting [2]) came out at 35%.
